# PubChem BioAssay AID489035 (Sanford-Burnham Center for Chemical Genomics, 2010)
# Calls of active or inactive are those of the source. How the calls were made is not given here.
# Tested on: Jurkat NF-kB reporter, TCR-induced, luciferase luminescence
# Assay: T-cell NF-kB luciferase reporter inhibition – Jurkat cells, luminescence, dose response (AID 489035)
row,SMILES,IC50
1,CC1CCCN(c2ncnc3c2cnn3-c2ccc(Cl)cc2)C1 (configuration not stated),10.5 µM
2,C[C@]12CC[C@@H]3c4cc(O)c(O)cc4CC[C@H]3[C@@H]1CC[C@@H]2O,4.76 µM
3,COc1cc2nc(CN3CC=C(c4ccccc4)CC3)[nH]c(=O)c2cc1OC,> 80 µM (inactive)
4,CCO[C@H]1OC(C(=O)NCc2nc3ccccc3[nH]2)=C[C@@H](C2CC2)[C@@H]1CCCO,> 80 µM (inactive)
5,CCCC(=O)NC(c1ccc(C(C)C)cc1)c1ccc2cccnc2c1O (configuration not stated),4.15 µM
6,C=CCSc1nc2ccccc2n1C(=O)/C=C/c1cc(OC)c(OC)c(OC)c1,1.79 µM
7,Cc1cc(NC(=O)CSc2nc3ccccc3c(=O)n2C2CCCC2)no1,> 80 µM (inactive)
8,COC(=O)c1cnc(Oc2ccc(NC(=O)NC(=O)c3c(F)cccc3Cl)cc2)cc1C(F)(F)F,> 80 µM (inactive)
9,Nc1ncn([C@@H]2O[C@H](CO)[C@@H](O)[C@H]2O)c(=O)n1,10.8 µM
10,CCN(CC)c1ccc(-c2nn3c(-c4n[nH]c5c4CCC5)nnc3s2)cc1,47.1 µM (inactive)
11,COCCCNC(=O)C(=O)Nc1ccc2c(c1)N(S(=O)(=O)c1cccs1)CCC2,5.46 µM
12,Cc1cc(NC(=O)CSc2nc3c(sc4ccccc43)c(=O)n2CCCN2CCOCC2)n[nH]1,> 80 µM (inactive)
13,COc1ccc(-c2ccc3oc(-c4ccc(OC)cc4)c(C#CCO)c3c2)cc1,> 80 µM (inactive)
14,Cc1cccc(OCCNC(=O)c2ccc(Cl)c(S(=O)(=O)NCc3cccnc3)c2)c1,> 80 µM (inactive)
15,O=C(c1ccccc1)c1cc([N+](=O)[O-])ccc1N1CCOCC1,> 80 µM (inactive)
16,CC(Oc1ccc(Cl)cc1Cl)C(=O)Nc1ccncc1 (configuration not stated),61.3 µM (inactive)
17,COc1cc(NC(=O)N2CCNC2=O)cc(C(=O)Nc2cccc(C(F)(F)F)c2)c1,> 80 µM (inactive)
18,O[C@@H]1[C@@H](O)C=C2CCN3Cc4cc5c(cc4[C@H]1C23)OCO5 (some centres not stated),0.84 µM
19,COc1cccc2sc(Nc3nnc(-c4ccccc4Cl)o3)nc12,> 80 µM (inactive)
20,CCOC(=O)N=Nc1c2ccccc2c2nc3no[nH]c3nc12,0.73 µM
21,CC(=O)NC(c1ccc2ccccc2c1)c1ccc2cccnc2c1O (configuration not stated),7.22 µM
22,CCSc1nc2ccccc2n1C(=O)/C=C\c1ccc(OC)c(OC)c1,2.27 µM
23,Cc1nn(C)c(C)c1CN(Cc1nc(CCC(C)C)no1)C(C)C,> 80 µM (inactive)
24,CC1Cc2cc(-c3csc(NC(=O)Cc4cccs4)n3)ccc2N1S(C)(=O)=O (configuration not stated),5.4 µM
25,CC(=O)c1sc2c(c1OC(=O)c1ccc(Cl)cc1Cl)c(=O)n(-c1ccccc1)c(=S)n2-c1ccccc1,1.35 µM

row,SMILES,IC50
1,Cc1ccc2cccc(NS(=O)(=O)c3ccccc3)c2n1,0.98 µM
2,COc1cc(C(=O)N/N=C/c2cc([N+](=O)[O-])cs2)cc(OC)c1OC,> 80 µM (inactive)
3,c1ccc(-c2noc(-c3ccc4c(c3)OCO4)n2)nc1,0.55 µM
4,CC(=O)Nc1ccc(S(=O)(=O)N2CCSc3ccccc32)cc1,> 80 µM (inactive)
5,Cc1c(C(=O)OCC(C)C)[nH]c2c1C(=O)CC(c1cccs1)C2 (configuration not stated),> 80 µM (inactive)
6,CCN1/C(=C/c2ccc3cc(C)ccc3[n+]2CC)Sc2ccc3sccc3c21,3.1 µM
7,CCCC(=O)NC(c1ccc(N(C)C)cc1)c1ccc2cccnc2c1O (configuration not stated),6.58 µM
8,CC(C)(C)c1csc(Sc2ccc([N+](=O)[O-])cn2)n1,3.24 µM
9,CCc1ccc(/C=N/NC(=O)c2cc(C3CC3)nc3ccccc23)s1,20 µM (inactive)
10,C[C@]12CCC3C(CCC4=CC(O)CC[C@@]43/C=N/O)C1(O)CCC2C1=CC(=O)OC1 (some centres not stated),47.8 µM (inactive)
11,CCN1/C(=C/c2ccc3ccccc3[n+]2CC)C=Cc2ccccc21,11.2 µM
12,COc1cc(NS(=O)(=O)c2ccc(OC)c(C)c2C)c(OC)cc1Cl,> 80 µM (inactive)
13,Cc1ccc(O)c(NC(=O)c2cc(-c3ccco3)on2)c1,> 80 µM (inactive)
14,O=C(Nc1ccc(N2CCOCC2)cc1)c1ccc(Cl)c(S(=O)(=O)N2CCCCC2)c1,> 80 µM (inactive)
15,COc1cccc(N/C(N)=N/c2nc(CSc3ccccn3)cc(=O)[nH]2)c1,4.67 µM
16,CC(=O)NC(c1ccc(C(C)C)cc1)c1ccc2cccnc2c1O (configuration not stated),3.06 µM
17,CCN(CC)c1ccc2nc3ccccc3[n+](CC)c2c1,12.4 µM
18,O=C(Cc1ccc(-c2ccccc2)cc1)NCc1ccccc1,< 0.16 µM
19,Cc1cccc(N2CCN(C(=O)c3c(-c4ccccc4)noc3C)CC2)c1C,> 80 µM (inactive)
20,COc1ccc(CCNc2cc(N3CCN(C(=O)c4ccccc4F)CC3)ccc2[N+](=O)[O-])cc1OC,> 80 µM (inactive)
21,Cc1ccccc1NC1=C/C(=N\S(=O)(=O)c2cccs2)c2ccccc2C1=O,1.25 µM
22,Cc1ccc(-c2nc(-c3ccccn3)no2)cc1,2.34 µM
23,Cc1ccc(O)c(NC(=O)CCC2CCCCC2)c1,> 80 µM (inactive)
24,Cc1ccc2c(c1)C=CC(C#N)N2C(=O)c1ccccc1 (configuration not stated),> 80 µM (inactive)
25,COc1cc2c(c(OC)c1OC)-c1ccc(O)cc1[C@@H](NC(C)=O)CC2,> 80 µM (inactive)

row,SMILES,IC50
1,C[C@@H]1O[C@@H](O[C@H]2C[C@@H](O)[C@]3(CO)[C@H]4[C@H](O)C[C@]5(C)[C@@H](C6COC(=O)C6)CC[C@]5(O)[C@@H]4CC[C@]3(O)C2)[C@H](O)[C@H](O)[C@H]1O (some centres not stated),> 80 µM (inactive)
2,Cc1cc(-c2ccc(C)c(S(=O)(=O)N3CCN(c4ccc([N+](=O)[O-])cc4)CC3)c2)on1,> 80 µM (inactive)
3,CCOC(=O)c1[nH]c(C)c(C(=O)Nc2cc(OC)ccc2OC)c1C,> 80 µM (inactive)
4,CCCCC(=O)NC(c1ccc(N(C)C)cc1)c1ccc2cccnc2c1O (configuration not stated),> 80 µM (inactive)
5,O=C(c1ccc(CS(=O)c2ccccc2Cl)o1)N1CCN(c2ccccn2)CC1 (configuration not stated),68.2 µM (inactive)
6,COC(=O)c1ccccc1NC1=C/C(=N\S(=O)(=O)c2cccs2)c2ccccc2C1=O,2.91 µM
7,c1ccc2c(c1)CCN(c1ncnc3c1[nH]c1ccccc13)C2,24.2 µM (inactive)
8,O=C(c1ccccc1-c1ccccc1)N1CCN(c2ccccn2)CC1,> 80 µM (inactive)
9,O=C1CC(c2cccc(Br)c2)c2cc3c(cc2N1)CCC3 (configuration not stated),63.9 µM (inactive)
10,CC(=O)O[C@H]1C(=O)[C@@]2(C)C([C@H](OC(=O)c3ccccc3)[C@]3(O)C[C@H](OC(=O)[C@H](O)[C@@H](NC(=O)c4ccccc4)c4ccccc4)C(C)=C1C3(C)C)[C@]1(OC(C)=O)CO[C@@H]1C[C@H]2O (some centres not stated),< 0.16 µM
11,CCOc1cc(C#N)c(NC(=O)c2cccnc2)cc1OCC,> 80 µM (inactive)
12,O=C(c1ccc(Cl)cc1)c1cc([N+](=O)[O-])ccc1N1CCOCC1,> 80 µM (inactive)
13,C=C1C(=O)C=C2CN(C(=O)c3ccccc3)[C@@](Cc3ccc(F)cc3)(C(=O)OC)[C@@H]12,0.89 µM
14,COc1cc(C2C(C#N)=C(N)Oc3cc(N(C)C)ccc32)cc2c1OCO2 (configuration not stated),> 80 µM (inactive)
15,CCOc1ccccc1C1CC(=O)Nc2cc(C)c(C)cc21 (configuration not stated),> 80 µM (inactive)
16,COc1cccc(N2CCN(C(=O)c3cn(Cc4ccccc4)nc3-c3cccnc3)CC2)c1,> 80 µM (inactive)
17,O=C(Nc1ccccc1Cl)/C(Cl)=C(\Cl)S(=O)c1ccccc1 (configuration not stated),1.77 µM
18,Cc1ccc(C)c(NS(=O)(=O)c2ccc(-c3cnc(C4CC4)o3)cc2)c1,13.8 µM
19,COc1cc(C(=O)Nc2ccc3c(c2)CCN3C(C)=O)cc(OC)c1OC,> 80 µM (inactive)
20,CC1CCN(c2c(NCc3ccc(C(=O)N4CCc5ccccc54)cc3)c(=O)c2=O)CC1,> 80 µM (inactive)
21,Cc1noc(C)c1COc1ccc(CC(=O)NCc2ccccc2)cc1,> 80 µM (inactive)
22,C=C1C(O)[C@@H]2O[C@]3(CC[C@H](/C=C/C(C)[C@@H]4CC(C)=CC5(O[C@H](C[C@@](C)(O)CO)CCC5O)O4)O3)CC[C@H]2O[C@@H]1C(O)CC(C)[C@H]1OC2(CCCCO2)CCC1C (some centres not stated),0.29 µM
23,O=c1cc(-c2ccccc2)[nH]c2cc(Cl)ccc12,18.8 µM
24,Cc1nnc(N/N=C/c2ccccn2)[nH]c1=O,1.18 µM
25,CCCCCCCCCCCCCCCC[n+]1ccc(/C=N/O)cc1,1.57 µM

row,SMILES,IC50
1,COc1ccc(/C=N/Nc2cc(C)nc3ccc(OC)cc23)c(OC)c1,2.4 µM
2,CCOc1ccc2c(c1)OC(c1ccc(C)cc1)(C(F)(F)F)NC2=O (configuration not stated),> 80 µM (inactive)
3,Cc1ccc(NC(=O)c2cc3ccccc3oc2=O)cc1S(=O)(=O)N(C)C,0.98 µM
4,O=S1(=O)C=C(Sc2nc3ccccc3s2)c2ccccc21,0.26 µM
5,CCCCn1c2c(c(=N)c3c1CCC3)CCC2,> 80 µM (inactive)
6,Cc1c(C(=O)OCc2ccccc2)[nH]c2c1C(=O)CC(c1ccco1)C2 (configuration not stated),> 80 µM (inactive)
7,O=C(N=Nc1c(O)[nH]c2ccc(Br)cc12)c1ccccc1-n1cccc1,50.2 µM (inactive)
8,CC(=O)O[C@H]1C(=O)[C@@]2(C)C([C@H](OC(=O)c3ccccc3)[C@]3(O)C[C@H](OC(=O)[C@H](O)[C@@H](NC(=O)Cc4ccccc4)c4ccccc4)C(C)=C1C3(C)C)[C@]1(OC(C)=O)CO[C@@H]1C[C@@H]2O (some centres not stated),> 80 µM (inactive)
9,Cc1ccc(C(=O)Nc2cccc(C(=O)O)c2)cc1,3.03 µM
10,Cc1ccc(-c2cc3c(N=O)c4ccccc4c-3n[nH]2)cc1,1.65 µM
11,CNC[C@@H](CC1CCCCC1)NC[C@H](CC(C)C)NCCc1cccc(C(F)(F)F)c1,5 µM
12,CC(C)(C)C(=O)Nc1ccc(NC(=O)c2ccco2)nc1,0.81 µM
13,CC1=NNC(=O)/C1=C\c1cn(-c2ccccc2)nc1-c1ccc(Cl)cc1,1.13 µM
14,O=C(Nc1ccc(S(=O)(=O)Nc2ccccc2)cc1)c1ccc(CN2CCOCC2)cc1,29.5 µM (inactive)
15,COc1cc2nc(NC(=O)c3ccco3)sc(=O)c2cc1OC,0.47 µM
16,CCOc1ccc(N(C)S(=O)(=O)c2ccc(-c3cc(C)no3)s2)cc1,> 80 µM (inactive)
17,COc1ccc(NC(=O)Cn2nnc(-c3ccccc3NS(=O)(=O)c3ccc(OC)cc3)n2)cc1,> 80 µM (inactive)
18,O=C(Nc1cccc2ccccc12)OC1C=CS(=O)(=O)C1 (configuration not stated),1.06 µM
19,Cc1cc(C)cc(NC(=O)c2ccc([N+](=O)[O-])o2)c1,0.95 µM
20,O=C(N/N=C/c1ccccc1Cl)c1[nH]c2ccc(Br)cc2c1-c1ccccc1,6.27 µM
21,Cc1ccc(C(=O)c2cc([N+](=O)[O-])ccc2N2CCOCC2)cc1C,19.6 µM
22,COc1ccccc1NC(=O)c1cnc(Nc2ccccc2OC)c2ccccc12,> 80 µM (inactive)
